Data published in ChEMBL document CHEMBL1147866, “Cyclic monophosphate prodrugs of base-modified 2'-C-methyl ribonucleosides as potent inhibitors of hepatitis C virus RNA replication” (Bioorg Med Chem Lett, 2007).
pEC50: −log10 of the molar value.

Legend:
[1] = system: Bovine viral diarrhea virus 1; assay: Antiviral activity against Bovine viral diarrhea virus 1; format: functional, organism-based; details: Bovine viral diarrhea virus isolates and strains
[2] = system: Hepatitis C virus; assay: Antiviral activity against hepatitis C virus replication; format: functional, organism-based, Hepacivirus hominis
[3] = system: Rhesus monkey; assay: Metabolic stability in monkey plasma after 1 hr; format: ADME, Macaca mulatta
[4] = Metabolic stability in rat plasma after 1 hr; format: ADME, organism-based; details: read-out: Stability
[5] = organism: Homo sapiens; assay: Metabolic stability in human plasma after 1 hr; format: ADME, organism-based

Row | pEC50 [1] | pEC50 [2] | Stability [3] | remaining at 1 h [4] [%] | Stability [5] | Structure (SMILES)
1 | 6.61 | 6.84 | – | – | – | CN(NS(C)(=O)=O)c1ncnc2c1ncn2[C@@H]1O[C@@H]2OP(=O)(OCCSC(=O)C(C)(C)C)O[C@H]2[C@@]1(C)O (some centres undefined)
2 | 7.80 | 8.10 | Stable | 4 | Stable | CCCOC(C)(C)C(=O)SCCOP1(=O)O[C@H]2O[C@@H](n3cnc4c(N(C)NS(C)(=O)=O)nc(N)nc43)[C@](C)(O)[C@@H]2O1 (some centres undefined)
3 | 6.67 | 6.79 | – | – | – | CC(C)OC(=O)OCOP1(=O)O[C@H]2O[C@@H](n3cnc4c(N(C)NS(C)(=O)=O)nc(N)nc43)[C@](C)(O)[C@@H]2O1 (some centres undefined)
4 | 6.96 | 7.41 | – | – | – | CCCOCC(C)(C)C(=O)SCCOP1(=O)O[C@H]2O[C@@H](n3cnc4c(N(C)NS(C)(=O)=O)ncnc43)[C@](C)(O)[C@@H]2O1 (some centres undefined)
5 | 7.48 | 7.66 | – | – | – | CN(NS(C)(=O)=O)c1nc(N)nc2c1ncn2[C@@H]1O[C@@H]2OP(=O)(OCCSC(=O)C(C)(C)C)O[C@H]2[C@@]1(C)O (some centres undefined)
6 | 6.65 | 7.04 | – | – | – | CN(NS(C)(=O)=O)c1nc(N)nc2c1ncn2[C@@H]1O[C@@H]2OP(=O)(OCOC(=O)C(C)(C)C)O[C@H]2[C@@]1(C)O (some centres undefined)
7 | 6.02 | 6.38 | – | – | – | CN(NS(C)(=O)=O)c1ncnc2c1ncn2[C@@H]1O[C@@H]2OP(=O)(OCOC(=O)C(C)(C)C)O[C@H]2[C@@]1(C)O (some centres undefined)
8 | 6.38 | 6.33 | – | – | – | CC(C)OC(=O)OCOP1(=O)O[C@H]2O[C@@H](n3cnc4c(N(C)NS(C)(=O)=O)ncnc43)[C@](C)(O)[C@@H]2O1 (some centres undefined)
